Experimental data reported in patent US7271165B2, “Rifamycin analogs and uses thereof” (priority 2003, dated 2007).
≈ marks a conversion by molar mass, not a printed value.

Key:
[1] = test system: S. aureus; assay: MIC assay, S. aureus; assay type: cell-based, Staphylococcus aureus
[2] = test system: E. faecalis; assay: MIC assay, E. faecalis; assay type: cell-based, Enterococcus faecalis
[3] = test system: E coli; assay: MIC assay, E coli; assay type: cell-based
[4] = test system: S. pneumo.; assay: MIC assay, S. pneumo.; assay type: cell-based, Streptococcus pneumoniae
[5] = test system: H. flu; assay type: cell-based, H. influenza; settings: H. flu

CO[C@H]1/C=C/O[C@@]2(C)Oc3c(C)c(O)c4c(=O)c(c5oc6cc(N7CCC(NS(C)(=O)=O)CC7)cc(O)c6nc-5c4c3C2=O)NC(=O)/C(C)=C\C=C\[C@H](C)[C@H](O)[C@@H](C)[C@@H](O)[C@@H](C)[C@H](O)[C@@H]1C [Compound 27]
MIC (μg/mL) S. aureus [1]: 0.015 µg/mL (≈ 16 nM)
MIC (μg/mL) E. faecalis [2]: 1 µg/mL (≈ 1070 nM)
MIC (μg/mL) E coli [3]: >8 µg/mL
MIC (μg/mL) S. pneumo. [4]: 0.001 µg/mL (≈ 1.07 nM)
MIC (μg/mL) H. flu [5]: 0.12 µg/mL (≈ 128 nM)

CCCNC(=O)NC1CCN(c2cc(O)c3nc4c5c6c7c(C)c(O)c5c(=O)c(c-4oc3c2)NC(=O)/C(C)=C\C=C\[C@H](C)[C@H](O)[C@@H](C)[C@@H](O)[C@@H](C)[C@H](OC(C)=O)[C@H](C)[C@@H](OC)/C=C/O[C@@](C)(O7)C6=O)CC1 [Compound 28, 3′-hydroxy-5′-[4-propyluryl-1-piperidinyl]benzoxazinorifamycin]
MIC (μg/mL) S. aureus [1]: 0.03 µg/mL (≈ 30.5 nM)
MIC (μg/mL) E. faecalis [2]: 1 µg/mL (≈ 1020 nM)
MIC (μg/mL) E coli [3]: >8 µg/mL
MIC (μg/mL) S. pneumo. [4]: 0.002 µg/mL (≈ 2.03 nM)
MIC (μg/mL) H. flu [5]: 0.25 µg/mL (≈ 254 nM)

CO[C@H]1/C=C/O[C@@]2(C)Oc3c(C)c(O)c4c(=O)c(c5oc6cc(N7CCC(NC(=O)OC(C)C)CC7)cc(O)c6nc-5c4c3C2=O)NC(=O)/C(C)=C\C=C\[C@H](C)[C@H](O)[C@@H](C)[C@@H](O)[C@@H](C)[C@H](O)[C@@H]1C [Compound 29]
MIC (μg/mL) S. aureus [1]: 0.008 µg/mL (≈ 8.48 nM)
MIC (μg/mL) E. faecalis [2]: 2 µg/mL (≈ 2120 nM)
MIC (μg/mL) E coli [3]: >8 µg/mL
MIC (μg/mL) S. pneumo. [4]: 0.00012 µg/mL (≈ 0.127 nM)
MIC (μg/mL) H. flu [5]: 1 µg/mL (≈ 1060 nM)

CCOC(=O)NC1CCN(c2ccc3nc4c5c6c7c(C)c(O)c5c(=O)c(c-4n(C)c3c2)NC(=O)/C(C)=C\C=C\[C@H](C)[C@H](O)[C@@H](C)[C@@H](O)[C@@H](C)[C@H](O)[C@H](C)[C@@H](OC)/C=C/O[C@@](C)(O7)C6=O)CC1 [Compound 31]
MIC (μg/mL) S. aureus [1]: 0.03 µg/mL (≈ 32.4 nM)
MIC (μg/mL) E. faecalis [2]: 0.25 µg/mL (≈ 270 nM)
MIC (μg/mL) E coli [3]: 8 µg/mL (≈ 8640 nM)
MIC (μg/mL) S. pneumo. [4]: 0.0005 µg/mL (≈ 0.54 nM)
MIC (μg/mL) H. flu [5]: 0.25 µg/mL (≈ 270 nM)

CO[C@H]1/C=C/O[C@@]2(C)Oc3c(C)c(O)c4c(=O)c(c5oc6cc(N7CCC(N)CC7)cc(O)c6nc-5c4c3C2=O)NC(=O)/C(C)=C\C=C\[C@H](C)[C@H](O)[C@@H](C)[C@@H](O)[C@@H](C)[C@H](OC(C)=O)[C@@H]1C [Compound 33, 3′-hydroxy-5′-[4-amino-1-piperidinyl]benzoxazinorifamycin]
MIC (μg/mL) S. aureus [1]: 0.008 µg/mL (≈ 8.9 nM)
MIC (μg/mL) E. faecalis [2]: 1 µg/mL (≈ 1110 nM)
MIC (μg/mL) E coli [3]: >8 µg/mL
MIC (μg/mL) S. pneumo. [4]: 0.00006 µg/mL (≈ 0.0667 nM)
MIC (μg/mL) H. flu [5]: 1 µg/mL (≈ 1110 nM)

CCNC(=O)NC1CCN(c2cc(O)c3nc4c5c6c7c(C)c(O)c5c(=O)c(c-4oc3c2)NC(=O)/C(C)=C\C=C\[C@H](C)[C@H](O)[C@@H](C)[C@@H](O)[C@@H](C)[C@H](OC(C)=O)[C@H](C)[C@@H](OC)/C=C/O[C@@](C)(O7)C6=O)CC1 [Compound 34, 3′-hydroxy-5′-[4-ethyluryl-1-piperidinyl]benzoxazinorifamycin]
MIC (μg/mL) S. aureus [1]: 0.03 µg/mL (≈ 30.9 nM)
MIC (μg/mL) E. faecalis [2]: 2 µg/mL (≈ 2060 nM)
MIC (μg/mL) E coli [3]: 8 µg/mL (≈ 8250 nM)
MIC (μg/mL) S. pneumo. [4]: 0.001 µg/mL (≈ 1.03 nM)
MIC (μg/mL) H. flu [5]: 0.5 µg/mL (≈ 515 nM)

CCCS(=O)(=O)NC1CCN(c2cc(O)c3nc4c5c6c7c(C)c(O)c5c(=O)c(c-4oc3c2)NC(=O)C(C)=CC=CC(C)C(O)C(C)C(O)C(C)C(OC(C)=O)C(C)C(OC)C=COC(C)(O7)C6=O)CC1 (centres unmarked) [Compound 35]
MIC (μg/mL) S. aureus [1]: 0.015 µg/mL (≈ 14.9 nM)
MIC (μg/mL) E. faecalis [2]: 4 µg/mL (≈ 3980 nM)
MIC (μg/mL) E coli [3]: 8 µg/mL (≈ 7960 nM)
MIC (μg/mL) S. pneumo. [4]: 0.00025 µg/mL (≈ 0.249 nM)
MIC (μg/mL) H. flu [5]: 0.5 µg/mL (≈ 497 nM)

CCCC(=O)NC1CCN(c2cc(O)c3nc4c5c6c7c(C)c(O)c5c(=O)c(c-4oc3c2)NC(=O)C(C)=CC=CC(C)C(O)C(C)C(O)C(C)C(O)C(C)C(OC)C=COC(C)(O7)C6=O)CC1 (centres unmarked) [Compound 36, 25-O-deacetyl-3′-hydroxy-5′-[4-butanamide-1-piperidinyl]benzoxazinorifamycin]
MIC (μg/mL) S. aureus [1]: 0.004 µg/mL (≈ 4.31 nM)
MIC (μg/mL) E. faecalis [2]: 2 µg/mL (≈ 2160 nM)
MIC (μg/mL) E coli [3]: >8 µg/mL
MIC (μg/mL) S. pneumo. [4]: 0.00003 µg/mL (≈ 0.0324 nM)
MIC (μg/mL) H. flu [5]: 0.25 µg/mL (≈ 270 nM)

CCNC(=O)NC1CCN(c2cc(O)c3nc4c5c6c7c(C)c(O)c5c(=O)c(c-4oc3c2)NC(=O)C(C)=CC=CC(C)C(O)C(C)C(O)C(C)C(O)C(C)C(OC)C=COC(C)(O7)C6=O)CC1 (centres unmarked) [Compound 37, 25-O-deacetyl-3′-hydroxy-5′-[4-ethyluryl-1-piperidinyl]benzoxazinorifamycin]
MIC (μg/mL) S. aureus [1]: 0.03 µg/mL (≈ 32.3 nM)
MIC (μg/mL) E. faecalis [2]: 2 µg/mL (≈ 2160 nM)
MIC (μg/mL) E coli [3]: >8 µg/mL
MIC (μg/mL) S. pneumo. [4]: 0.004 µg/mL (≈ 4.31 nM)
MIC (μg/mL) H. flu [5]: 0.25 µg/mL (≈ 269 nM)

COC1C=COC2(C)Oc3c(C)c(O)c4c(=O)c(c5oc6cc(N7CCC(NS(=O)(=O)C(F)(F)F)CC7)cc(O)c6nc-5c4c3C2=O)NC(=O)C(C)=CC=CC(C)C(O)C(C)C(O)C(C)C(O)C1C (centres unmarked) [Compound 38]
MIC (μg/mL) S. aureus [1]: 0.12 µg/mL (≈ 121 nM)
MIC (μg/mL) E. faecalis [2]: 8 µg/mL (≈ 8090 nM)
MIC (μg/mL) E coli [3]: >8 µg/mL
MIC (μg/mL) S. pneumo. [4]: 0.015 µg/mL (≈ 15.2 nM)
MIC (μg/mL) H. flu [5]: 0.25 µg/mL (≈ 253 nM)
